In the NIST ThermoML archive (doi:10.1021/je9001575):
± gives the expanded uncertainty stated by the source.

What was measured:
[1] = Molar enthalpy of transition or fusion; conditions: Crystal; Adiabatic calorimetry
[2] = molar heat capacity at saturation pressure; conditions: Liquid, Vacuum adiabatic calorimetry
[3] = Crystal; Adiabatic calorimetry

CC(C)C [2-methylpropane]
Molar enthalpy of transition or fusion [1]: 1.074 ± 0.00478 kcal/mol | molar heat capacity ([2]; 116.8 K): 99.97 ± 0.3 J/K/mol | molar heat capacity ([2]; 119.57 K): 100.39 ± 0.3 J/K/mol | molar heat capacity ([2]; 122.23 K): 100.86 ± 0.3 J/K/mol | molar heat capacity ([2]; 124.96 K): 101.19 ± 0.3 J/K/mol | molar heat capacity ([2]; 127.55 K): 101.83 ± 0.3 J/K/mol | molar heat capacity ([2]; 130.24 K): 102.1 ± 0.3 J/K/mol | molar heat capacity ([2]; 132.77 K): 102.54 ± 0.3 J/K/mol | molar heat capacity ([2]; 135.42 K): 103.17 ± 0.3 J/K/mol | molar heat capacity ([2]; 137.9 K): 103.68 ± 0.3 J/K/mol | molar heat capacity ([2]; 140.51 K): 103.94 ± 0.3 J/K/mol | molar heat capacity ([2]; 142.95 K): 104.41 ± 0.3 J/K/mol | molar heat capacity ([2]; 145.52 K): 104.91 ± 0.3 J/K/mol | molar heat capacity ([2]; 147.92 K): 105.3 ± 0.3 J/K/mol | molar heat capacity ([2]; 150.47 K): 105.75 ± 0.31 J/K/mol | molar heat capacity ([2]; 152.83 K): 106.16 ± 0.31 J/K/mol | molar heat capacity ([2]; 155.34 K): 106.5 ± 0.31 J/K/mol | molar heat capacity ([2]; 157.66 K): 107.02 ± 0.31 J/K/mol | molar heat capacity ([2]; 160.15 K): 107.18 ± 0.31 J/K/mol | molar heat capacity ([2]; 162.44 K): 107.78 ± 0.31 J/K/mol | molar heat capacity ([2]; 164.89 K): 108.27 ± 0.31 J/K/mol | molar heat capacity ([2]; 167.16 K): 108.62 ± 0.31 J/K/mol | molar heat capacity ([2]; 169.58 K): 109.08 ± 0.31 J/K/mol | molar heat capacity ([2]; 171.82 K): 109.17 ± 0.31 J/K/mol | molar heat capacity ([2]; 174.21 K): 110.08 ± 0.31 J/K/mol | molar heat capacity ([2]; 176.43 K): 110.08 ± 0.31 J/K/mol | molar heat capacity ([2]; 178.8 K): 110.97 ± 0.31 J/K/mol | molar heat capacity ([2]; 180.99 K): 111.25 ± 0.31 J/K/mol | molar heat capacity ([2]; 183.33 K): 112.12 ± 0.31 J/K/mol | molar heat capacity ([2]; 185.5 K): 112 ± 0.31 J/K/mol | molar heat capacity ([2]; 187.82 K): 112.78 ± 0.31 J/K/mol | molar heat capacity ([2]; 189.97 K): 112.81 ± 0.31 J/K/mol | molar heat capacity ([2]; 192.26 K): 113.22 ± 0.31 J/K/mol | molar heat capacity ([2]; 194.39 K): 113.72 ± 0.31 J/K/mol | molar heat capacity ([2]; 196.66 K): 114.21 ± 0.31 J/K/mol | molar heat capacity ([2]; 198.77 K): 114.75 ± 0.32 J/K/mol | molar heat capacity ([2]; 201.01 K): 115.05 ± 0.32 J/K/mol | molar heat capacity ([2]; 203.11 K): 115.61 ± 0.32 J/K/mol | molar heat capacity ([2]; 205.34 K): 115.9 ± 0.32 J/K/mol | molar heat capacity ([2]; 207.41 K): 116.35 ± 0.32 J/K/mol | molar heat capacity ([2]; 209.61 K): 116.79 ± 0.32 J/K/mol | molar heat capacity ([2]; 211.67 K): 117.4 ± 0.32 J/K/mol | molar heat capacity ([2]; 213.86 K): 117.52 ± 0.32 J/K/mol | molar heat capacity ([2]; 215.9 K): 118.12 ± 0.32 J/K/mol | molar heat capacity ([2]; 218.07 K): 118.51 ± 0.32 J/K/mol | molar heat capacity ([2]; 220.09 K): 118.79 ± 0.32 J/K/mol | molar heat capacity ([2]; 222.24 K): 119.63 ± 0.32 J/K/mol | molar heat capacity ([2]; 224.25 K): 119.86 ± 0.32 J/K/mol | molar heat capacity ([2]; 226.39 K): 120.61 ± 0.32 J/K/mol | molar heat capacity ([2]; 228.38 K): 121.07 ± 0.32 J/K/mol | molar heat capacity ([2]; 230.5 K): 121.62 ± 0.32 J/K/mol | molar heat capacity ([2]; 232.48 K): 121.93 ± 0.32 J/K/mol | molar heat capacity ([2]; 234.59 K): 122.3 ± 0.32 J/K/mol | molar heat capacity ([2]; 236.55 K): 122.62 ± 0.32 J/K/mol | molar heat capacity ([2]; 238.65 K): 123.75 ± 0.32 J/K/mol | molar heat capacity ([2]; 240.59 K): 123.7 ± 0.32 J/K/mol | molar heat capacity ([2]; 242.68 K): 124.31 ± 0.32 J/K/mol | molar heat capacity ([2]; 244.61 K): 124.72 ± 0.33 J/K/mol | molar heat capacity ([2]; 246.68 K): 125.15 ± 0.33 J/K/mol | molar heat capacity ([2]; 248.6 K): 125.88 ± 0.33 J/K/mol | molar heat capacity ([2]; 250.66 K): 126.37 ± 0.33 J/K/mol | molar heat capacity ([2]; 252.57 K): 126.78 ± 0.33 J/K/mol | molar heat capacity ([2]; 254.62 K): 127.78 ± 0.33 J/K/mol | molar heat capacity ([2]; 256.52 K): 127.81 ± 0.33 J/K/mol | molar heat capacity ([2]; 258.55 K): 128.92 ± 0.33 J/K/mol | molar heat capacity ([2]; 260.45 K): 128.69 ± 0.33 J/K/mol | molar heat capacity ([2]; 262.47 K): 129.62 ± 0.33 J/K/mol | molar heat capacity ([2]; 264.35 K): 129.86 ± 0.33 J/K/mol | molar heat capacity ([2]; 266.37 K): 130.48 ± 0.33 J/K/mol | molar heat capacity ([2]; 268.24 K): 131.47 ± 0.33 J/K/mol | molar heat capacity ([2]; 270.24 K): 131.7 ± 0.33 J/K/mol | molar heat capacity ([2]; 272.11 K): 132.45 ± 0.33 J/K/mol | molar heat capacity ([2]; 274.1 K): 133.44 ± 0.33 J/K/mol | molar heat capacity ([2]; 275.96 K): 133.56 ± 0.33 J/K/mol | molar heat capacity ([2]; 277.94 K): 134.24 ± 0.33 J/K/mol | molar heat capacity ([2]; 279.8 K): 134.7 ± 0.34 J/K/mol | molar heat capacity ([2]; 281.76 K): 135.37 ± 0.34 J/K/mol | molar heat capacity ([2]; 283.62 K): 135.69 ± 0.34 J/K/mol | molar heat capacity ([2]; 285.57 K): 136.15 ± 0.34 J/K/mol | molar heat capacity ([2]; 287.43 K): 137.7 ± 0.34 J/K/mol | molar heat capacity ([2]; 289.37 K): 137.5 ± 0.34 J/K/mol | molar heat capacity ([2]; 291.23 K): 138.84 ± 0.34 J/K/mol | molar heat capacity ([2]; 293.15 K): 139.14 ± 0.34 J/K/mol | molar heat capacity ([2]; 295.01 K): 139.36 ± 0.34 J/K/mol | molar heat capacity ([2]; 296.93 K): 140.12 ± 0.34 J/K/mol | molar heat capacity ([2]; 298.78 K): 140.84 ± 0.34 J/K/mol | molar heat capacity ([2]; 300.68 K): 141.15 ± 0.34 J/K/mol | molar heat capacity ([2]; 302.54 K): 142.6 ± 0.34 J/K/mol | molar heat capacity ([2]; 306.3 K): 143.77 ± 0.34 J/K/mol | molar heat capacity ([2]; 308.17 K): 143.87 ± 0.34 J/K/mol | molar heat capacity ([2]; 310.04 K): 144.87 ± 0.34 J/K/mol | molar heat capacity ([2]; 311.91 K): 146 ± 0.35 J/K/mol | molar heat capacity ([2]; 313.77 K): 146.62 ± 0.35 J/K/mol | molar heat capacity ([2]; 315.63 K): 147.42 ± 0.35 J/K/mol | Triple point temperature [3]: 113.71 ± 0.07 K
